Where two headings read alike, the source gives them in different places.
Legend:
[1] = Determination of cytotoxicity (HepG2 cells, resazurin assay, 4 days); type: cell-based; details: human, read-out: Experiment 3 Cytotoxicity CC50
Procedure: Experiment 3: Determination of Cytotoxicity
The cytotoxicity of the test compound was tested using HepG2 cells. The cells were incubated for 4 days in the presence of the test compound. Cell activity was assessed using the resazurin assay.

[2] = test system: HBV DNA in the supernatant of HepG2.2.15; assay: Determination of anti-HBV activity in HepG2.2.15 cell (HBV DNA in supernatant by qPCR); type: cell-based, Hepatitis B virus
[3] = HepG2.2.15 cells, HBV DNA, read-out: Experiment 2 Cell experiment EC50
[4] = Hepatitis B virus, HepG2.2.15, HepG2.2.15 cells, HBV DNA, read-out: Experiment 2 Cell experiment EC50

Structure (SMILES) | CC50 at 4 days [1] | EC50 [2, 3] | EC50 [2, 4] | EC50 ([2]; Hepatitis B virus, HepG2.2.15, read-out: Experiment 2 Cell experiment EC50)
CC(C)[C@H]1C=Cc2c(cn(C)c2C(=O)Nc2ccnc(C(F)F)c2)S(=N)(=O)N1 (single isomer, unassigned) [Compound 10f1] | > 30000 nM | 100 to 1000 nM |  | 
CC(O)[C@H]1CCc2c(cn(C)c2C(=O)Nc2ccc(F)c(C#N)c2)S(=N)(=O)N1 (single isomer, unassigned) [Compound 40b1] | > 30000 nM |  | 100 to 1000 nM | 
CC(C)C[C@H]1CCc2c(cn(C)c2C(=O)Nc2ccc(F)c(C#N)c2)S(=O)(=NC2CC2)N1 (single isomer, unassigned) [Compound 60y1] | > 30000 nM | 100 to 1000 nM |  | 
CN=S1(=O)N[C@@H](C(C)C)CCc2c1cn(C)c2C(=O)Nc1ccc(F)c(F)c1 (single isomer, unassigned) [Compound 60a1] | > 30000 nM | 100 to 1000 nM |  | 
Cn1cc2c(c1C(=O)Nc1ccnc(C(F)F)c1)CC[C@H](C1CCCCC1)NS2(=N)=O (single isomer, unassigned) [Compound 20ee1] | > 30000 nM | 100 to 1000 nM |  | 
CC(O)[C@H]1C=Cc2c(cn(C)c2C(=O)Nc2ccc(F)c(C#N)c2)S(=N)(=O)N1 (single isomer, unassigned) [Compound 30b1] | > 30000 nM |  | 100 to 1000 nM | 
C[C@@H](OCc1ccccc1)[C@H]1C=Cc2c(cn(C)c2C(=O)Nc2cc(F)c(F)c(F)c2)S(=N)(=O)N1 (single isomer, unassigned) [Compound 10ddd1] | > 30000 nM | 100 to 1000 nM |  | 
CC(C)[C@@H]1C=Cc2c(cn(C)c2C(=O)Nc2ccc(F)c(C#N)c2)S(=N)(=O)N1 (single isomer, unassigned) [Compound 10h1] | > 30000 nM |  | > 1000 nM | 
CC(O)[C@H]1C=Cc2c(cn(C)c2C(=O)Nc2cc(F)c(F)c(F)c2)S(=N)(=O)N1 (single isomer, unassigned) [Compound 30c1] | > 30000 nM |  | 100 to 1000 nM | 
CC(O)[C@H]1CCc2c(cn(C)c2C(=O)Nc2ccc(F)c(F)c2)S(=N)(=O)N1 (single isomer, unassigned) [Compound 40a1] | > 30000 nM |  | 100 to 1000 nM | 
Cn1cc2c(c1C(=O)Nc1cc(F)nc(C#N)c1)CC[C@H](C1CCCCC1)NS2(=N)=O (single isomer, unassigned) [Compound 20dd1] | > 30000 nM | 100 to 1000 nM |  | 
CC(C)[C@H]1CCc2c(cn(C)c2C(=O)Nc2ccc(F)c(C#N)c2)S(=N)(=O)N1 (single isomer, unassigned) [Compound 20b1] | > 30000 nM | 100 to 1000 nM |  | 
CC(C)C[C@H]1CCc2c(cn(C)c2C(=O)Nc2ccc(F)c(C#N)c2)S(=O)(=NC(C)C)N1 (single isomer, unassigned) [Compound 60x1] | > 30000 nM | 100 to 1000 nM |  | 
CC(C)C[C@H]1CCc2c(nn(C)c2C(=O)Nc2ccc(F)c(C#N)c2)S(=N)(=O)N1 (single isomer, unassigned) [Compound 80b1] | > 30000 nM | 100 to 1000 nM |  | 
CC(O)[C@H]1C=Cc2c(cn(C)c2C(=O)Nc2ccc(F)c(F)c2)S(=N)(=O)N1 (single isomer, unassigned) [Compound 30a1] | > 30000 nM |  | 100 to 1000 nM | 
CC(C)C[C@H]1C=Cc2c(cn(C)c2C(=O)Nc2ccc(F)c(C#N)c2)S(=O)(=NC2CC2)N1 (single isomer, unassigned) [Compound 50v1] | > 30000 nM | 100 to 1000 nM |  | 
CC(C)[C@H]1C=Cc2c(cn(C)c2C(=O)Nc2ccc(F)c(C#N)c2)S(=N)(=O)N1 (single isomer, unassigned) [Compound 10b1] | > 30000 nM |  |  | 100 to 1000 nM
CC(C)C[C@H]1C=Cc2c(nn(C)c2C(=O)Nc2ccc(F)c(C#N)c2)S(=N)(=O)N1 (single isomer, unassigned) [Compound 70b1] | > 30000 nM | 100 to 1000 nM |  | 
CN=S1(=O)N[C@@H](C(C)C)C=Cc2c1cn(C)c2C(=O)Nc1ccc(F)c(F)c1 (single isomer, unassigned) [Compound 50a1] | > 30000 nM | 100 to 1000 nM |  | 
C[C@@H](OCc1ccccc1)[C@H]1CCc2c(cn(C)c2C(=O)Nc2ccc(F)c(C#N)c2)S(=N)(=O)N1 (single isomer, unassigned) [Compound 20ccc1] | > 30000 nM |  | 0.1 to 100 nM | 
CC(C)[C@H]1CCc2c(cn(C)c2C(=O)Nc2cc(F)c(F)c(F)c2)S(=N)(=O)N1 (single isomer, unassigned) [Compound 20c1] | > 30000 nM | 100 to 1000 nM |  | 
CC(C)[C@H]1CCc2c(cn(C)c2C(=O)Nc2ccc(F)c(F)c2)S(=N)(=O)N1 (single isomer, unassigned) [Compound 20a1] | > 30000 nM | 100 to 1000 nM |  | 
CN=S1(=O)N[C@@H](CC(C)C)CCc2c1nn(C)c2C(=O)Nc1ccc(F)c(C#N)c1 (single isomer, unassigned) [Compound 90b1] | > 30000 nM | 100 to 1000 nM |  | 

Structure (SMILES) | CC50 at 4 days [1] | EC50 [2, 3] | EC50 [2, 4] | EC50 ([2]; Hepatitis B virus, HepG2.2.15, read-out: Experiment 2 Cell experiment EC50)
COc1ccc(CC[C@H](C)[C@H]2CCc3c(cn(C)c3C(=O)Nc3cc(F)c(F)c(F)c3)S(=N)(=O)N2)cc1 (single isomer, unassigned) [Compound 20ttt1] | > 30000 nM | 100 to 1000 nM |  | 
CCN=S1(=O)N[C@@H](CC(C)C)CCc2c1cn(C)c2C(=O)Nc1ccc(F)c(C#N)c1 (single isomer, unassigned) [Compound 60w1] | > 30000 nM | 100 to 1000 nM |  | 
CN=S1(=O)N[C@@H](CC(C)C)CCc2c1cn(C)c2C(=O)Nc1ccc(F)c(C#N)c1 (single isomer, unassigned) [Compound 60v1] | > 30000 nM | 100 to 1000 nM |  | 
CCN=S1(=O)N[C@@H](C(C)C)CCc2c1cn(C)c2C(=O)Nc1ccc(F)c(C#N)c1 (single isomer, unassigned) [Compound 60g1] | > 30000 nM | 100 to 1000 nM |  | 
CC(C)[C@H]1C=Cc2c(cn(C)c2C(=O)Nc2cc(F)nc(C#N)c2)S(=N)(=O)N1 (single isomer, unassigned) [Compound 10e1] | > 30000 nM | 100 to 1000 nM |  | 
CC[C@H](C)[C@H]1C=Cc2c(cn(C)c2C(=O)Nc2ccc(F)c(F)c2)S(=N)(=O)N1 (single isomer, unassigned) [Compound 10n1] | > 30000 nM | 100 to 1000 nM |  | 
Cn1cc2c(c1C(=O)Nc1ccc(F)c(F)c1)CC[C@H](CO)NS2(=N)=O (single isomer, unassigned) [Compound 40g1] | > 30000 nM |  | 100 to 1000 nM | 
CC(C)[C@H]1CCc2c(nn(C)c2C(=O)Nc2ccc(F)c(C#N)c2)S(=N)(=O)N1 (single isomer, unassigned) [Compound 80a1] | > 30000 nM | 100 to 1000 nM |  | 
Cn1cc2c(c1C(=O)Nc1ccc(F)c(F)c1)C=C[C@H](C1CCCCC1)NS2(=N)=O (single isomer, unassigned) [Compound 10bb1] | > 30000 nM | 100 to 1000 nM |  | 
CC(C)[C@H]1C=Cc2c(cn(C)c2C(=O)Nc2cc(F)c(F)c(F)c2)S(=N)(=O)N1 (single isomer, unassigned) [Compound 10c1] | > 30000 nM | 100 to 1000 nM |  | 
CN=S1(=O)N[C@@H](C(C)C)CCc2c1nn(C)c2C(=O)Nc1ccc(F)c(C#N)c1 (single isomer, unassigned) [Compound 90a1] | > 30000 nM | 100 to 1000 nM |  | 
CC(C)[C@H]1C=Cc2c(nn(C)c2C(=O)Nc2ccc(F)c(C#N)c2)S(=N)(=O)N1 (single isomer, unassigned) [Compound 70a1] | > 30000 nM | 100 to 1000 nM |  | 
CC(C)C[C@H]1C=Cc2c(cn(C)c2C(=O)Nc2ccc(F)c(C#N)c2)S(=O)(=NC(C)C)N1 (single isomer, unassigned) [Compound 50u1] | > 30000 nM | 100 to 1000 nM |  | 
COc1ccc(CC[C@H](C)[C@H]2C=Cc3c(cn(C)c3C(=O)Nc3cc(F)nc(C#N)c3)S(=N)(=O)N2)cc1 (single isomer, unassigned) [Compound 10vvv1] | > 30000 nM | 100 to 1000 nM |  | 
CC(C)C[C@H]1C=Cc2c(cn(C)c2C(=O)Nc2cc(F)nc(C#N)c2)S(=N)(=O)N1 (single isomer, unassigned) [Compound 10w1] | > 30000 nM | 100 to 1000 nM |  | 
CCN=S1(=O)N[C@@H](CC(C)C)C=Cc2c1cn(C)c2C(=O)Nc1ccc(F)c(C#N)c1 (single isomer, unassigned) [Compound 50t1] | > 30000 nM | 100 to 1000 nM |  | 
CC[C@H](C)[C@H]1C=Cc2c(cn(C)c2C(=O)Nc2ccc(F)c(C#N)c2)S(=N)(=O)N1 (single isomer, unassigned) [Compound 10o1] | > 30000 nM | 100 to 1000 nM |  | 
CC(C)[C@@H]1C=Cc2c(cn(C)c2C(=O)Nc2ccc(F)c(F)c2)S(=N)(=O)N1 (single isomer, unassigned) [Compound 10g1] | > 30000 nM | 100 to 1000 nM |  | 
Cn1cc2c(c1C(=O)Nc1ccc(F)c(F)c1)C=C[C@H](CO)NS2(=N)=O (single isomer, unassigned) [Compound 30g1] | > 30000 nM |  | 100 to 1000 nM | 
C[C@@H](OCc1ccccc1)[C@H]1C=Cc2c(cn(C)c2C(=O)Nc2ccc(F)c(C#N)c2)S(=N)(=O)N1 (single isomer, unassigned) [Compound 10ccc1] | > 30000 nM | 100 to 1000 nM |  | 
CN=S1(=O)N[C@@H](CC(C)C)C=Cc2c1cn(C)c2C(=O)Nc1ccc(F)c(C#N)c1 (single isomer, unassigned) [Compound 50s1] | > 30000 nM | 100 to 1000 nM |  | 
Cn1cc2c(c1C(=O)Nc1ccc(F)c(C#N)c1)C=C[C@H](C1CCCCC1)NS2(=N)=O (single isomer, unassigned) [Compound 10cc1] | > 30000 nM | 100 to 1000 nM |  | 
CC(C)[C@H]1C=Cc2c(cn(C)c2C(=O)Nc2ccc(F)c(F)c2)S(=N)(=O)N1 (single isomer, unassigned) [Compound 10a1] | > 30000 nM | 100 to 1000 nM |  | 

From US11168055B2, “Endocyclic thiamidinoamide-arylamide compound and use thereof for treating hepatitis B” (SHANGHAI LONGWOOD BIOPHARMACEUTICALS CO., LTD., priority 2017, dated 2021)
